The subject of one assay is p-ERK in AsPC-1 cells. Nature of the assay: Inhibition of p-ERK in AsPC-1 cells (LANCE Ultra phospho-ERK1/2 kit). Particulars: Homo sapiens, ASPC1, 2 h with compound, read-out: AsPC-1_pERK IC50. The format is cell-based. The protocol:
1. Experimental objective: The inhibition activity of the example compounds on the phosphorylated ERK level in KRAS G12D mutant cells AsPC-1 was determined. 2. Experimental instruments: • 2.1 Instruments: Microplate reader (BioTek Synergy H1); Pipette (Eppendorf & Rainin) • 2.2 Reagents: Phosphorylated ERK1/2 (T202-Y204) LANCE Ultra Cellular Detection Kit was purchased from PerkinElmer, with a catalog number of TRF4000M; DMEM was purchased from Gibco, with a catalog number of 11995065; FBS was purchased from Gibco, with a catalog number of 10091148; PBS was purchased from Gibco, with a catalog number of 10010023; trypsin was purchased from Gibco, with a catalog number of 25200056; cell culture plates were purchased from Corning Company, with a catalog number of 3610; White opaque OptiPlate™-384 plates were purchased from PerkinElmer, with a catalog number of 6007290. 3. Experimental method: When AsPC-1 cells were cultured to appropriate confluence, the AsPC-1 cells were collected, and the cell density was adjusted to 1 × 10^6/mL using complete culture medium. […] The plate was read using BioTek Synergy H1 and the signal values at the emission wavelengths of 620 nm and 665 nm were detected using a time-resolved fluorescence program. […]
For orientation: Time-resolved FRET reads energy transfer from a long-lived donor to a nearby acceptor.

Another assay addresses T1, KRAS G12D-SOS1 (Homo sapiens, UniProt P01116, G12D).
T1 construct: purchased Cisbio 63ADK000CB17PEG
Nature of the assay: Blocking of KRAS G12D-SOS1 protein binding (Cisbio KRAS-G12D/SOS1 Binding Assay Kit, time-resolved fluorescence). The source says:
• 1. Experimental objective: […] Experimental reagents and instruments The centrifuge (5810R) was purchased from Eppendorf; the pipette was purchased from Eppendorf or Rainin; and the microplate reader was purchased from BioTek (United States) with a model of SynergyH1 multifunctional microplate reader. KRAS-G12D/SOS1 Binding Assay Kit was purchased from Cisbio, with a catalog number of 63ADK000CB17PEG; GTP was purchased from Sigma, with a catalog number of G8877; 384-well plate was purchased from Perkin Elmer, with a catalog number of 6007299. The Diluent buffer in the kit was used to dilute the compound into 10× compound solution of different concentrations, and 2 uL was added to each well of the 384-well plate. Tag2-KRAS G12D protein and GTP were formulated into a mixed solution of 5×KRAS G12D-GTP protein using Diluent buffer, and Tag1-SOS1 protein was formulated into a 5×SOS1 protein solution using Diluent buffer. Each solution was added to the 384-well plate separately at 4 uL per well, and incubated at room temperature for 15 min. A mixed solution of 2× anti-Tag1-Tb^3+ and anti-Tag2-XL665 formulated using detection buffer was added to the 384-well plate at 10 µL per well, and incubated at 4°C in the dark for 3 h.

The test system of assay [1] is human colorectal cancer cell line (GP2D). Nature of the assay: Anti-tumor efficacy in mouse transplanted tumor model of human colorectal cancer cell line (GP2D). The format is in vivo, mice (BALB/c nude). As to conditions: 30mpk, PO*BID, Day 14.
Assay [2] shares this test system. Described as above. The assay is classed as in vivo, mice (BALB/c nude). Particulars: PO*BID. The text has this: 8-10 week old female conventional immunodeficient mice (BALB/c nude) with a body weight of 18 g-22 g were used as experimental animals, and a transplanted tumor model of human colorectal cancer cell line (GP2D) was used to conduct in vivo efficacy experiments to test the anti-tumor results of the example compounds after gavage administration.
The example compounds of the present invention, made in house.
A certain amount of the example compound was weighed, and an appropriate amount of 10% vehicle (Solutol HS15) was added. The mixture was stirred on a magnetic stirrer for 0.5 h to formulate a homogeneous suspension at the desired concentration.
The human colorectal cancer cell line (GP2D) was derived from COBIOER BIOSCIENCES CO., LTD, cultured on DMEM medium (Gibco, 11995-065) supplemented with 10% fetal calf serum (Gibco, 10091-148) and 1% penicillin/streptomycin (Gibco, 15140-122) and observed under a microscope (Thermo Fisher, 311). The cells were routinely passaged when the cells reached 80%-90% confluence in the culture flask. The passaged cells were cultured in a 37°C, 5% CO2 incubator (Thermo Fisher, 311).
Under aseptic conditions, human colorectal cancer cells (GP2D) in the logarithmic growth phase were harvested using 0.25% trypsin-EDTA (Gibco, 25200-056), washed and resuspended with phosphate buffer. The cell suspension was mixed with Matrigel (Corning, 356234) at a 1 : 1 ratio (v/v) and implanted subcutaneously into the right anterior dorsal region of immunodeficient mice (BALB/c nude). Each mouse was inoculated with 5*10^6 cells in a volume of 100 microliters (µL). After inoculation, when the tumor volume reached 100-200 mm^3, the mice would be evenly randomized into 5 groups based on the tumor size, with 5 mice per group, for in vivo efficacy experiments. The positive control group was the compound MRTX-1133, and the negative control group was the vehicle group.
Mode of administration: The positive control group was intraperitoneally injected, and the example compounds were administered orally.
Twice a week, the long and short diameters of the tumor were measured using a vernier caliper, and the tumor volume (mm^3) was calculated using the formula: V = 0.5*D*d*d, where D and d are the long and short diameters of the tumor, respectively. The anti-tumor efficacy was determined by dividing the average increase in tumor volume of compound-treated animals by the average increase in tumor volume of untreated animals. The calculation formula for tumor inhibition rate was: When there is no tumor regression, TGI(%) = 100-[(Vt-V0) administration group/(Vt-V0) vehicle control group]*100%. When tumor regression occurs, TGI(%) = [1-(V1-V0) administration group/V0 vehicle control group]* 100%. All animals were euthanized after the experiment.

T1 sequence (P01116 1-188 isoform P01116-2 G12D): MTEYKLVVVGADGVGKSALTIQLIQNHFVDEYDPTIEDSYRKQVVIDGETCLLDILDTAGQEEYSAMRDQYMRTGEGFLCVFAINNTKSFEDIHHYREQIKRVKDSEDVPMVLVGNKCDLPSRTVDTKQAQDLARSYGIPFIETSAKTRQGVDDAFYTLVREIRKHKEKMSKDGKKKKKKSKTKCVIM

On to `C#Cc1c(F)ccc2cc(O)cc(-c3nc4c5c(nc(OCC6(CN7CCC(=C(F)F)CC7)CC6)nc5c3F)N3C[C@H]5CC[C@H](N5)[C@H]3CO4)c12` [Example 1-1, 4-((5aS,6S,9R)-12-((1-((4-(difluoromethylene)piperidin-1-yl)methyl)cyclopropyl)methoxy)-1-fluoro-5a,6,7,8,9,10-hexahydro-5H-4-oxa-3,10a,11,13,14-pentaaza-6,9-methylenenaphtho[1,8-ab]heptalene-2-yl)-5-ethynyl-6-fluoronaphthalen-2-ol], for which the half-inhibitory concentration (IC50) – broadly, the concentration that inhibits the measured activity by half – is 1 nM in the assay on p-ERK in AsPC-1 cells and 1.8 nM on KRAS G12D-SOS1.
For the compound `[2H]C([2H])([2H])[C@@H]1Oc2nc(-c3cc(O)cc4ccc(F)c(C#C)c34)c(F)c3nc(OCC4(CN5CCC(=C(F)F)CC5)CC4)nc(c23)N2C[C@H]3CC[C@H](N3)[C@@H]12` [Example 161, 4-((5S,5aS,6S,9R)-12-((1-((4-(difluoromethylene)piperidin-1-yl)methyl)cyclopropyl)methoxy)-1-fluoro-5-(methyl-d3)-5a,6,7,8,9,10-hexahydro-5H-4-oxa-3,10a,11,13,14-pentaaza-6,9-methylnaphtho[1,8-ab]hept-2-yl)-5-ethynyl-6-fluoronaphthalen-2-ol], the “Tumor volume (mm^3, Mean ± SD) Day 14” value in assay [1] came out at 110 mm^3. In addition, in assay [2] (30mpk), the “Tumor volume (mm^3, Mean ± SD) Day 0” value is on record as 167 mm^3; the “TGI(%) Day 14” value worked out at 134.18%; the “ΔT/ΔC(%) Day 14” value is reported as 13.93%. Moreover, in assay [2] (100mpk), the “Tumor volume (mm^3, Mean ± SD) Day 0” value is listed as 167 mm^3; the “TGI(%) Day 14” value stood at 153.75%; the “Tumor volume (mm^3, Mean ± SD) Day 14” value is 77 mm^3; the “ΔT/ΔC(%) Day 14” value is given as 9.79%.
Consider `C#Cc1c(F)ccc2cc(O)cc(-c3nc4c5c(nc(OCC6(CN7CCC(=CF)CC7)CC6)nc5c3F)N3C[C@H]5CC[C@H](N5)[C@H]3[C@H](C)O4)c12` [Example 129, 5-ethynyl-6-fluoro-4-((5S,5aS,6S,9R)-1-fluoro-12-((1-((4-(fluoromethylene)piperidin-1-yl)methyl)cyclopropyl)methoxy)-5-methyl-5a,6,7,8,9,10-hexahydro-5H-4-oxa-3,10a,11,13,14-pentaaza-6,9-methylnaphtho[1,8-ab]hept-2-yl)naphthalen-2-ol], for which, in assay [1], the “Tumor volume (mm^3, Mean ± SD) Day 14” value was 112 mm^3. In assay [2] (30mpk), the “Tumor volume (mm^3, Mean ± SD) Day 0” value came to 167 mm^3; the “TGI(%) Day 14” value turned out to be 133.12%; the “ΔT/ΔC(%) Day 14” value was 14.15%. In addition, in assay [2] (100mpk), the “Tumor volume (mm^3, Mean ± SD) Day 0” value is listed as 167 mm^3; the “TGI(%) Day 14” value turned out to be 153.01%; the “Tumor volume (mm^3, Mean ± SD) Day 14” value stood at 79 mm^3; the “ΔT/ΔC(%) Day 14” value is listed as 9.94%.
As to “4-((5S,5aS,6R,9S)-12-((1-((((R)-4-(difluoromethylene)-2-methylpiperidin-1-yl)methyl)cyclopropyl)methoxy)-1-fluoro-5-(methyl-d3)-5a,6,7,8,9,10-hexahydro-5H-4-oxa-3,10a,11,13,14-pentaaza-6,9-methylnaphtho[1,8-ab]hept-2-yl)-5-ethynyl-6-fluoronaphthalen-2-ol [Example 162]”, in assay [1], the “Tumor volume (mm^3, Mean ± SD) Day 14” value was 130 mm^3. Besides, in assay [2] (30mpk), the “Tumor volume (mm^3, Mean ± SD) Day 0” value came out at 167 mm^3; the “TGI(%) Day 14” value turned out to be 122.15%; the “ΔT/ΔC(%) Day 14” value turned out to be 16.47%. Besides, in assay [2] (100mpk), the “Tumor volume (mm^3, Mean ± SD) Day 0” value was 167 mm^3; the “TGI(%) Day 14” value is 133.67%; the “Tumor volume (mm^3, Mean ± SD) Day 14” value is 111 mm^3; the “ΔT/ΔC(%) Day 14” value is 14.04%.

Source of the values: patent EP4635958A1, “PYRIMIDINE-CONTAINING POLYCYCLIC DERIVATIVE INHIBITOR, AND PREPARATION METHOD THEREFOR AND USE THEREOF” (Shanghai Hansoh Biomedical Co., Ltd., priority 2022, dated 2024).
